Structures are written as SMILES.

In the test the target is T1, recombinant human GST-Syk (Homo sapiens, UniProt P43405).
T1 construct: purchased Carna Biosciences 08-176
In words: Homogeneous Time-Resolved Fluorescence (HTRF) assay for the recombinant human Syk enzyme. The class given is biochemical. As to conditions: recombinant human GST-Syk 5 pM, ATP 25 μM, 10-dose titration 10 μM to 0.508 nM; read-out: rhSYK Activity IC50. A digest of the protocol:
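GST-hSyk fusion protein phosphorylated a peptide for 45 min at room temperature. The reaction was quenched with 2 nM Eu-anti-phosphotyrosine antibody and 70 nM SA-APC in 15 mM Tris pH 7.5, 40 mM EDTA, 0.01% Tween 20. The HTRF signal was read after 30 min.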
For orientation: In TR-FRET formats the signal depends on donor and acceptor labels being close together.
As a reminder, the IC50 is the concentration at which inhibition is half-maximal. On to `Cc1cc(Nc2nccc(C(F)F)n2)cc(-c2cn(CC(C)(O)C(C)(C)O)nn2)c1` (stereo not shown) [Example 21.25, 1-[4-(3-{[4-(difluoromethyl)pyrimidin-2-yl]amino}-5-methylphenyl)-1H-1,2,3-triazol-1-yl]-2,3-dimethylbutane-2,3-diol], for which the IC50 is 13.6 nM.
The figure for `Cc1cc(Nc2cc(C(F)(F)F)ccn2)nc(-c2cn(C[C@]3(O)C[C@H](C#N)C3)nn2)c1` [Example 4.26, trans-3-hydroxy-3-{[4-(4-methyl-6-{[4-(trifluoromethyl)pyridin-2-yl]amino}pyridin-2-yl)-1H-1,2,3-triazol-1-yl]methyl}cyclobutanecarbonitrile] is 0.7 nM.
Take `Cc1cc(Nc2cc(C(F)(F)F)ccn2)nc(-c2cn(-c3ccc(Br)cn3)nn2)c1` [6.2]: the IC50 stood at 1130 nM.
The figure for `Cc1cc(Nc2cc(C(F)(F)F)ccn2)nc(-c2cn(CC(C)(O)C(N)=O)nn2)c1` (stereo not shown) [Example 1.12, 2-hydroxy-2-methyl-3-[4-(4-methyl-6-{[4-(trifluoromethyl)pyridin-2-yl]amino}pyridin-2-yl)-1H-1,2,3-triazol-1-yl]propanamide] is 4.9 nM.
The figure for `Cc1cc(Nc2cc(C(F)(F)F)ccn2)nc(-c2cn(C3CCNC(=O)CC3)nn2)c1` (racemic) [Example 11.2, 5-[4-(4-methyl-6-{[4-(trifluoromethyl)pyridin-2-yl]amino}pyridin-2-yl)-1H-1,2,3-triazol-1-yl]azepan-2-one] is 23.8 nM.
`Cc1cc(Nc2nccc(C(F)(F)F)n2)cc(-c2cn(C3CS(=O)(=O)CC3O)nn2)c1` (stereo not shown) [Example 5.63, 4-[4-(3-methyl-5-{[4-(trifluoromethyl)pyrimidin-2-yl]amino}phenyl)-1H-1,2,3-triazol-1-yl]tetrahydrothiophene-3-ol 1,1-dioxide]: the IC50 was 24.1 nM.
For the compound `Cc1cc(Nc2cc(C(F)(F)F)ccn2)nc(-c2cn(C3CN(C(=O)C(C)O)CC3O)nn2)c1` (single isomer, unassigned) [Example 13.3, 1-[2-hydroxypropanoyl]-4-[4-(4-methyl-6-{[4-(trifluoromethyl)pyridin-2-yl]amino}pyridin-2-yl)-1H-1,2,3-triazol-1-yl]pyrrolidin-3-ol], the IC50 was determined as 10.5 nM.
`Cc1cc(Nc2cc(C(F)(F)F)ccn2)nc(-c2cn(CCC(N)=O)nn2)c1` [Example 1.3, 3-[4-(4-methyl-6-{[4-(trifluoromethyl)pyridin-2-yl]amino}pyridin-2-yl)-1H-1,2,3-triazol-1-yl]propanamide]: the IC50 was 3.8 nM.
Turning to `CCOC(=O)/C=C/Cn1cc(-c2cc(C)cc(Nc3cc(C(F)(F)F)ccn3)n2)nn1` [Example 5.34, ethyl (2E)-4-[4-(4-methyl-6-{[4-(trifluoromethyl)pyridin-2-yl]amino}pyridin-2-yl)-1H-1,2,3-triazol-1-yl]but-2-enoate], the IC50 came out at 171 nM.
For the compound `Cc1cc(Nc2cc(C(F)(F)F)ccn2)nc(-c2cn([C@@H](C)c3ccc(C(=O)O)cc3)nn2)c1` [Example 9.7, 4-{(1S)-1-[4-(4-methyl-6-{[4-(trifluoromethyl)pyridin-2-yl]amino}pyridin-2-yl)-1H-1,2,3-triazol-1-yl]ethyl}benzoic acid], the half-inhibitory concentration (IC50) amounted to 3.3 nM.
With `Cc1ccnc(Nc2cc(C)cc(-c3cn(C[C@H](O)CC#N)nn3)n2)c1` [Example 5.14, (3R)-3-hydroxy-4-(4-{4-methyl-6-[(4-methylpyridin-2-yl)amino]pyridin-2-yl}-1H-1,2,3-triazol-1-yl)butanenitrile], the IC50 came out at 23.4 nM.
With `Cc1cc(Nc2cc(C(F)(F)F)ccn2)nc(-c2cn(C(C)C(=O)NCc3c(-c4ccccc4)noc3C)nn2)c1` (stereo not shown) [Example 1.47, N-[(5-methyl-3-phenylisoxazol-4-yl)methyl]-2-[4-(4-methyl-6-{[4-(trifluoromethyl)pyridin-2-yl]amino}pyridin-2-yl)-1H-1,2,3-triazol-1-yl]propanamide], the IC50 was found to be 345 nM.
In the case of `COc1ccc(C2CN(C(=O)C(C)n3cc(-c4cc(C)cc(Nc5cc(C(F)(F)F)ccn5)n4)nn3)CCS2)cc1` (stereo not shown) [Example 1.45, 6-(1-{2-[2-(4-methoxyphenyl)thiomorpholin-4-yl]-1-methyl-2-oxoethyl}-1H-1,2,3-triazol-4-yl)-4-methyl-N-[4-(trifluoromethyl)pyridin-2-yl]pyridin-2-amine], the IC50 worked out at 172 nM.
For `Cc1cc(Nc2cc(C(F)(F)F)ccn2)nc(-c2cn(C(C(=O)O)c3ccccc3)nn2)c1` (stereo not shown) [Example 3.11, [4-(4-methyl-6-{[4-(trifluoromethyl)pyridin-2-yl]amino}pyridin-2-yl)-1H-1,2,3-triazol-1-yl](phenyl)acetic acid], the IC50 was determined as 5.1 nM.
Turning to `Cc1cc(Nc2cc(C(F)(F)F)ccn2)nc(-c2cn([C@@H](C)C(=O)O)nn2)c1` [Example 5.30, (2S)-2-[4-(4-methyl-6-{[4-(trifluoromethyl)pyridin-2-yl]amino}pyridin-2-yl)-1H-1,2,3-triazol-1-yl]propanoic acid], the IC50 was 39.8 nM.
In the case of `COC(=O)C1CCC(n2cc(-c3cc(C)cc(Nc4nccc(C(F)(F)F)n4)c3)nn2)CC1` (mixture of isomers) [Example 5.99, methyl 4-[4-(3-methyl-5-{[4-(trifluoromethyl)pyrimidin-2-yl]amino}phenyl)-1H-1,2,3-triazol-1-yl]cyclohexane-carboxylate], the IC50 is 430 nM.
Turning to `COc1nc(Nc2cc(C)cc(-c3cn(CC(C)(O)C(C)(C)O)nn3)c2)ncc1Cl` (stereo not shown) [Example 21.27, 1-(4-{3-[(5-chloro-4-methoxypyrimidin-2-yl)amino]-5-methylphenyl}-1H-1,2,3-triazol-1-yl)-2,3-dimethylbutane-2,3-diol], the IC50 came out at 41.5 nM.
With `Cc1cc(Nc2cc(C(F)(F)F)ccn2)nc(-c2cn(C(C)C(=O)NCCc3cn(C)c4ccccc34)nn2)c1` (stereo not shown) [Example 1.51, N-[2-(1-methyl-1H-indol-3-yl)ethyl]-2-[4-(4-methyl-6-{[4-(trifluoromethyl)pyridin-2-yl]amino}pyridin-2-yl)-1H-1,2,3-triazol-1-yl]propanamide], the IC50 was determined as 186 nM.
Consider `Cc1cc(Nc2cc(C(F)F)ccn2)nc(-c2cn(CC3CNC(=O)C3)nn2)c1` (single isomer, unassigned) [Example 24.2, 4-((4-(6-((4-(difluoromethyl)pyridin-2-yl)amino)-4-methylpyridin-2-yl)-1H-1,2,3-triazol-1-yl)methyl)pyrrolidin-2-one], for which the IC50 is 8.6 nM.
For `Cc1cc(Nc2cc(C(F)(F)F)ccn2)nc(-c2cn(CC(=O)O)nn2)c1` [Example 5.88, [4-(4-methyl-6-{[4-(trifluoromethyl)pyridin-2-yl]amino}pyridin-2-yl)-1H-1,2,3-triazol-1-yl]acetic acid], the IC50 was determined as 52.9 nM.
With `Cc1cc(Nc2cc(C(F)(F)F)ccn2)nc(-c2cn(Cc3ccc(C(=O)O)cc3)nn2)c1` [Example 5.42, 4-{[4-(4-methyl-6-{[4-(trifluoromethyl)pyridin-2-yl]amino}pyridin-2-yl)-1H-1,2,3-triazol-1-yl]methyl}benzoic acid] the figure was 3.3 nM.
Take `CCC(CO)n1cc(-c2cc(C)cc(Nc3cc(C(F)(F)F)ccn3)n2)nn1` (stereo not shown) [Example 13.9, 2-[4-(4-methyl-6-{[4-(trifluoromethyl)pyridin-2-yl]amino}pyridin-2-yl)-1H-1,2,3-triazol-1-yl]butan-1-ol]: the IC50 was determined as 2.9 nM.

Values taken from patent publication US9586931B2 (Merck Sharp & Dohme Corp., priority 2012, dated 2017).
